33 molecules from patent publication US10669283B2, “Compound and pharmacologically acceptable salt thereof” (MEIJI SEIKA PHARMA CO., LTD., priority 2016, dated 2020) can be followed below.

Structures are written as SMILES.

The subject of one test is PDE4. Briefly: PDE4 inhibition, scintillation proximity assay (SPA).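 For PDE4 Inhibitory Activity (concentration for the inhibition rate of 50%): A below 100 nM B 100 to below 1000 nM C 1000 nM or more.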 Type of test: biochemical. The settings on record: scintillation proximity assay (SPA); evaluated as classes A, B, C; read-out: PDE4 Inhibitory Activity (concentration for the inhibition rate of 50%). In outline:
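Scintillation proximity read-out: [2,8-3H]-cAMP hydrolysis by PDE4 ran 120 min at room temperature in Tris-HCl pH 7.4 buffer with 8.3 mM MgCl2, 1.7 mM EGTA and 3 mg/mL BSA. Bead-bound product (YSi-SPA with ZnSO4, 15 min) counted; blank lacks enzyme, control has DMSO only.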
Take `O=C(c1cc(-c2nccs2)c2oc(N3CC4CCC(C3)N4)nc2c1)N1CCOCC1` [Example 95, (2-(3,8-Diazabicyclo[3.2.1]octan-3-yl)-7-(thiazol-2-yl)benzo[d]oxazol-5-yl)(morpholino)methanone]: the IC50 is less than 100 nM.
For `OC1(COC(c2ccc(-c3cscn3)c3oc(N4CC5CC(C4)N5)nc23)C(F)(F)F)CC1` (stereo not drawn) [Example 286, 1-((1-(2-(3,6-Diazabicyclo[3.1.1]heptan-3-yl)-7-(thiazol-4-yl)benzo[d]oxazol-4-yl)-2,2,2-trifluoroethoxy)methyl)cyclopropan-1-ol], the IC50 is less than 100 nM.
For `O=C(c1cc(-c2nccs2)c2oc(N3CC4CCC(C3)N4)nc2c1)N1CCC1` [Example 97, (2-(3,8-Diazabicyclo[3.2.1]octan-3-yl)-7-(thiazol-2-yl)benzo[d]oxazol-5-yl)(azetidin-1-yl)methanone], the IC50 was less than 100 nM.
As to `Cc1ccc(-c2nccs2)c2oc(N3CC4CCCC(C3)N4)nc12` [Example 27, 2-(3,9-Diazabicyclo[3.3.1]nonan-3-yl)-4-methyl-7-(thiazol-2-yl)benzo[d]oxazole], the IC50 is less than 100 nM.
Turning to `CC(C)(O)C(C)(C)OC(c1ccc(-c2nccs2)c2oc(N3CC4CC(C3)N4)nc12)C(F)(F)F` (stereo not drawn) [Example 280, 3-(1-(2-(3,6-Diazabicyclo[3.1.1]heptan-3-yl)-7-(thiazol-2-yl)benzo[d]oxazol-4-yl)-2,2,2-trifluoroethoxy)-2,3-dimethylbutan-2-ol], the IC50 was less than 100 nM.
As to `CCOC(c1cc(-c2nccs2)c2oc(N3CC4CCC(C3)N4)nc2c1)C(F)(F)F` (stereo not drawn) [Example 148, 2-(3,8-Diazabicyclo[3.2.1]octan-3-yl)-5-(1-ethoxy-2,2,2-trifluoroethyl)-7-(thiazol-2-yl)benzo[d]oxazole], the IC50 is less than 100 nM.
In the case of `CSc1cc(-c2nccs2)c2oc(N3CC4CCC(C3)N4)nc2c1` [Example 39, 2-(3,8-Diazabicyclo[3.2.1]octan-3-yl)-5-(methylthio)-7-(thiazol-2-yl)benzo[d]oxazole], the IC50 is less than 100 nM.
Same read-out and setting: with `COC(C)(c1ccc(-c2nccs2)c2oc(N3CC4CC(C3)N4)nc12)C(F)(F)F` (stereo not drawn) [Example 235, 2-(3,6-Diazabicyclo[3.1.1]heptan-3-yl)-7-(thiazol-2-yl)-4-(1,1,1-trifluoro-2-methoxypropan-2-yl)benzo[d]oxazole] the figure was less than 100 nM; with `CC(O)C(F)(F)OC(c1ccc(-c2nccs2)c2oc(N3CC4CC(C3)N4)nc12)C(F)(F)F` (stereo not drawn) [Example 265, 1-(1-(2-(3,6-Diazabicyclo[3.1.1]heptan-3-yl)-7-(thiazol-2-yl)benzo[d]oxazol-4-yl)-2,2,2-trifluoroethoxy)-1,1-difluoropropan-2-ol], less than 100 nM.
Turning to `COC(C)c1ccc(-c2nccs2)c2oc(N3CC4CC(C3)N4)nc12` (stereo not drawn) [Example 241, 2-(3,6-Diazabicyclo[3.1.1]heptan-3-yl)-4-(1-methoxyethyl)-7-(thiazol-2-yl)benzo[d]oxazole], the IC50 is less than 100 nM.
As to `COC(C)c1cc(-c2nccs2)c2oc(N3CC4CC(C3)N4)nc2c1` (stereo not drawn) [Example 111, 2-(3,6-Diazabicyclo[3.1.1]heptan-3-yl)-5-(1-methoxyethyl)-7-(thiazol-2-yl)benzo[d]oxazole], the IC50 was less than 100 nM.
Regarding `CC(O)c1cc(-c2nccs2)c2oc(N3CC4CC(C3)N4)nc2c1` (stereo not drawn) [Example 107, 1-(2-(3,6-Diazabicyclo[3.1.1]heptan-3-yl)-7-(thiazol-2-yl)benzo[d]oxazol-5-yl)ethan-1-ol], the IC50 lay within 100 to 1000 nM.
As for `CC(C)(O)COC(c1ccc(-c2cscn2)c2oc(N3CC4CC(C3)N4)nc12)C(F)(F)F` (stereo not drawn) [Example 284, 1-(1-(2-(3,6-Diazabicyclo[3.1.1]heptan-3-yl)-7-(thiazol-4-yl)benzo[d]oxazol-4-yl)-2,2,2-trifluoroethoxy)-2-methylpropan-2-ol], the IC50 was less than 100 nM.
As for `OCC(F)(F)Oc1ccc(-c2cscn2)c2oc(N3CC4CC(C3)N4)nc12` [Example 311, 2-((2-(3,6-Diazabicyclo[3.1.1]heptan-3-yl)-7-(thiazol-4-yl)benzo[d]oxazol-4-yl)oxy)-2,2-difluoroethan-1-ol], the IC50 is less than 100 nM.
Regarding `OC(c1cc(-c2nccs2)c2oc(N3CC4CCCC(C3)N4)nc2c1)C(F)(F)F` (stereo not drawn) [Example 136, 1-(2-(3,9-Diazabicyclo[3.3.1]nonan-3-yl)-7-(thiazol-2-yl)benzo[d]oxazol-5-yl)-2,2,2-trifluoroethan-1-ol], the IC50 is less than 100 nM.
The same measure, in the same setting: with `O=S1(=O)CCC(Oc2ccc(-c3nccs3)c3oc(N4CC5CC(C4)N5)nc23)CC1` [Example 314, 4-((2-(3,6-Diazabicyclo[3.1.1]heptan-3-yl)-7-(thiazol-2-yl)benzo[d]oxazol-4-yl)oxy)tetrahydro-2H-thiopyran 1,1-dioxide] the figure was less than 100 nM.
In the case of `FC(F)Oc1ccc(-c2nccs2)c2oc(N3CC4CCC(C3)N4)nc12` [Example 263, 2-(3,8-Diazabicyclo[3.2.1]octan-3-yl)-4-(difluoromethoxy)-7-(thiazol-2-yl)benzo[d]oxazole], the IC50 was less than 100 nM.
With `CSc1cc(-c2nccs2)c2oc(N3CC4CCCC(C3)N4)nc2c1` [Example 41, 2-(3,9-Diazabicyclo[3.3.1]nonan-3-yl)-5-(methylthio)-7-(thiazol-2-yl)benzo[d]oxazole], the IC50 was less than 100 nM.
On the same count and under the same terms, with `COC(C)c1cc(-c2nccs2)c2oc(N3CC4CC(C3)N4)nc2c1OC(F)(F)F` (stereo not drawn) [Example 211, 2-(3,6-Diazabicyclo[3.1.1]heptan-3-yl)-5-(1-methoxyethyl)-7-(thiazol-2-yl)-4-(trifluoromethoxy)benzo[d]oxazole] the figure was less than 100 nM; with `Oc1ccc(-c2nccs2)c2oc(N3CC4CC(C3)N4)nc12` [Example 79, 2-(3,6-Diazabicyclo[3.1.1]heptan-3-yl)-7-(thiazol-2-yl)benzo[d]oxazol-4-ol], less than 100 nM; with `OCCOC(c1ccc(-c2nccs2)c2oc(N3CC4CCC(C3)N4)nc12)C(F)(F)F` (stereo not drawn) [Example 225, 2-(1-(2-(3,8-Diazabicyclo[3.2.1]octan-3-yl)-7-(thiazol-2-yl)benzo[d]oxazol-4-yl)-2,2,2-trifluoroethoxy)ethan-1-ol], less than 100 nM.
The same measure, in the same setting: as for `CC(C)(O)C(Oc1ccc(-c2nccs2)c2oc(N3CC4CC(C3)N4)nc12)C(F)(F)F` (stereo not drawn) [Example 313, 3-((2-(3,6-Diazabicyclo[3.1.1]heptan-3-yl)-7-(thiazol-2-yl)benzo[d]oxazol-4-yl)oxy)-4,4,4-trifluoro-2-methylbutan-2-ol], the figure is less than 100 nM; as for `FC(F)(F)COc1cc(-c2nccs2)c2oc(N3CC4CCC(C3)N4)nc2c1` [Example 66, 2-(3,8-Diazabicyclo[3.2.1]octan-3-yl)-7-(thiazol-2-yl)-5-(2,2,2-trifluoroethoxy)benzo[d]oxazole], less than 100 nM.
Consider `CC(O)COC(c1cc(-c2nccs2)c2oc(N3CC4CCC(C3)N4)nc2c1)C(F)(F)F` (stereo not drawn) [Example 155, 1-(1-(2-(3,8-Diazabicyclo[3.2.1]octan-3-yl)-7-(thiazol-2-yl)benzo[d]oxazol-5-yl)-2,2,2-trifluoroethoxy)propan-2-ol], for which the IC50 is less than 100 nM.
Same read-out and setting: with `CC(=O)Nc1cc(-c2nccs2)c2oc(N3CC4CCC(C3)N4)nc2c1` [Example 50, N-(2-(3,8-diazabicyclo[3.2.1]octan-3-yl)-7-(thiazol-2-yl)benzo[d]oxazol-5-yl)acetamide] the figure was less than 100 nM.
As for `COC(C)(C)c1cc(-c2nccs2)c2oc(N3CC4CCC(C3)N4)nc2c1OC(F)(F)F` [Example 198, 2-(3,8-Diazabicyclo[3.2.1]octan-3-yl)-5-(2-methoxypropan-2-yl)-7-(thiazol-2-yl)-4-(trifluoromethoxy)benzo[d]oxazole], the IC50 is less than 100 nM.
Regarding `COC(c1cc(-c2nccs2)c2oc(N3CC4CC(C3)N4)nc2c1OC(F)(F)F)C(F)F` (stereo not drawn) [Example 208, 2-(3,6-Diazabicyclo[3.1.1]heptan-3-yl)-5-(2,2-difluoro-1-methoxyethyl)-7-(thiazol-2-yl)-4-(trifluoromethoxy) benzo[d]oxazole], the IC50 is less than 100 nM.
As to `CC(O)(c1ccc(-c2nccs2)c2oc(N3CC4CC(C3)N4)nc12)C(F)F` (stereo not drawn) [Example 296, 2-(2-(3,6-Diazabicyclo[3.1.1]heptan-3-yl)-7-(thiazol-2-yl)benzo[d]oxazol-4-yl)-1,1-difluoropropan-2-ol], the IC50 was less than 100 nM.
Consider `N#CCOC(c1ccc(-c2nccs2)c2oc(N3CC4CCC(C3)N4)nc12)C(F)(F)F` (stereo not drawn) [Example 228, 2-(1-(2-(3,8-Diazabicyclo[3.2.1]octan-3-yl)-7-(thiazol-2-yl)benzo[d]oxazol-4-yl)-2,2,2-trifluoroethoxy)acetonitrile], for which the IC50 was less than 100 nM.
Take `COCCOc1cc(-c2nccs2)c2oc(N3CC4CCC(C3)N4)nc2c1` [Example 69, 2-(3,8-Diazabicyclo[3.2.1]octan-3-yl)-5-(2-methoxyethoxy)-7-(thiazol-2-yl)benzo[d]oxazole]: the IC50 was less than 100 nM.

The same test, now with this note: scintillation proximity assay; class symbols; read-out: PDE4 Inhibitory Activity.
With `CN(CCO)S(=O)(=O)c1ccc(-c2nccs2)c2oc(N3CC4CC(C3)N4)nc12` [Example 389, 2-(3,6-diazabicyclo[3.1.1]heptan-3-yl)-N-(2-hydroxyethyl)-N-methyl-7-(thiazol-2-yl)benzo[d] oxazole-4-sulfonamide], the IC50 was less than 100 nM.
Take `OC(c1ccc(-c2nccs2)c2oc(N3CC4CCC(C3)N4O)nc12)C(F)(F)F` (stereo not drawn) [Example 379, 3-(7-(thiazol-2-yl)-4-(2,2,2-trifluoro-1-hydroxyethyl)benzo[d]oxazol-2-yl)-3,8-diaza-bicyclo[3.2.1] octan-8-ol]: the IC50 was less than 100 nM.
`ON1C2CC1CN(c1nc3c(OC(F)(F)F)ccc(-c4nccs4)c3o1)C2` [Example 380, 3-(7-(thiazol-2-yl)-4-(trifluoro-methoxy)benzo[d]oxazol-2-yl)-3,6-diazabicyclo [3.1.1]heptan-6-ol]: the IC50 is less than 100 nM.
